{C6NH2} = C6-amino linker; d = 2'-deoxy (DNA); m = 2'-O-methyl
What was measured:
Id1 = assay: Down-regulation of Id1 in tumor endothelium of MMTV-HER2/neu (YD) breast carcinoma, IHC; assay type: in vivo, mouse
Experimental: Homing studies were also performed in animals bearing spontaneous tumors in MMTV-HER2/neu (YD) and PTEN+/− backgrounds. […] To test if the PCAOs down-regulate Id1 protein levels in vivo, tumor bearing transgenic MMTV-HER2/neu (YD) Id1+/− mice were injected intravenously with Id1-PCAOs. Since repeated application of the drug was necessary to yield significant down-regulation in vitro, the animals were treated with […] of Id1-PCAO or Id1-AO for three consecutive days. Over 80% of tumor vessels in animals treated with Id1-PCAO were completely negative for Id1 expression by IHC.
YD neu transgenic animals bearing breast carcinoma were treated for 3 subsequent days with 25 nmol of either Id1-ASO or F3-Id1-ASO conjugate in PBS by i.v. injection. 24 h after the last injection animals were sacrificed, the tumor removed, fixed in paraformaldehyde and embedded in parafine. IHC staining was performed for Id1 (antibody C-20, SantaCruz Biotechnology, Santa Cruz, Calif.) on sections.

[1] = tested on: endothelial cells (HUVECs and the murine endothelioma cell line EOMA); assay: Uptake of fluorescence labeled Id1-PCAO by endothelial cells, confocal fluorescence microscopy; assay type: cell-based; conditions: 200 nM, no lipid or other carrier
Experimental: In order to determine if the Id1 PCAO retained the homing specificity of the F3 peptide and could be taken up by cells in the absence of lipid or other specialized carrier, fluorescence labeled Id1-PCAOs were supplied to different cell lines at a concentration of 200 nM. […] Fluorescein and tetra methyl-rhodamine red labeled PCAOs were also tested to control for the effects of the fluorophore and similar results were obtained. To rule out effects from the fixation process we performed epifluorescence live imaging on viable HUVECs and HeLa cells and similar results were observed.
HUVEC were seeded 24 h prior to transfection at 10^5 cells/well in six-well MWDs in standard growth media (EGM-2) without antibiotics. At the day of transfection the AO-conjugates and control oligos were diluted in EGM-2 to the indicated concentration. Media was replaced with the supplemented EGM-2. The procedure was repeated every 24 h for two more days, samples were drawn at the indicated time points and analyzed via western blot. Other cell lines were treated similarly, with the exception that Id1-PCAO was added to standard growth media, DME or RPMI 1640 in accordance to cell type. Uptake studies in different cell lines with fluorescence labeled Id1-PCAO were performed in both the standard growth media (DME, RPMI 1640 or EGM-2) or in OptiMEM I (supplemented with 2% FBS) to control for media effects.

HUVEC = assay: Wound healing (scratch) assay; assay type: cell-based, human; conditions: 200 nM, 72 h treatment, 22 h after scratch
Experimental: HUVEC (4th passage) were seeded 100,000 cells into the wells of a fibronectin coated two-well chamber slides (BD Bioscience). Medium was exchanged after 18 h with standard medium containing either F3-ASO conjugates or ASO at a concentration of 200 nM. The treatment was repeated every 24 h for two more days. 72 h after starting the treatment a scratch was applied with a micropipette-tip. Media was removed the cell-layer once washed with PBS and media containing the F3-conjugate or the control ASO was added. The chamber slides were incubated at 37° C. with 5% CO2 for 22 h. The cells were washed with PBS, fixed with 4% paraformaldehyde in PBS for 20 min at r.t., and washed twice with PBS. The slides were mounted and images were taken under a light microscope to access the grade of closure of the applied scratch.
HUVEC were plated in fibronectin coated two-well chamber slides (BD Bioscience) at 2.5×10^4 cells/well. Growth media was supplemented with 200 nM Id1-PCAO (or Id1-AO) and renewed every 24 h. 72 h after plating a scratch was applied using a 20 μl pipette tip. Chambers were washed with media and supplemented media was added. 18 h after the scratch was applied, cells were fixed and imaged.

## GCACCagctccttgaggcGUGAG (antisense GCACCAGCTCCTTGAGGCGUGAG; sugars from the 5' end m5 d13 m5, 5' {C6NH2}, backbone and methylation of C not given here; DNA gap phosphorothioate linked, F3 peptide conjugate form, further chemistry not fully specified) [Id1-AO, ID No. 2]
Id1; MMTV-HER2/neu (YD) Id1+/− mice, 15 nmol/d i.v., three consecutive days
  down-regulation of Id1 in tumor vessels: no detectable down-regulation of Id1
Id1; YD neu transgenic animals, 25 nmol i.v., 3 subsequent days, 24 h after last injection
  Id1 expression in tumor endothelium, IHC: no effect
[1]
  uptake / internalization into endothelial cells: no internalization was observed
HUVEC
  closure of the applied scratch: closed completely

From patent publication US9393317B2, “Peptide-conjugated oligonucleotide therapeutic and method of making and using same” (Sloan-Kettering Institute for Cancer Research, priority 2008, dated 2016)
